The record followed here is ChEMBL document CHEMBL5346940, “Design, synthesis and biological evaluation of dual Topo II/HDAC inhibitors bearing pyrimido[5,4-b]indole and pyrazolo[3,4-d]pyrimidine motifs” (Eur J Med Chem, 2023).

Series [1] has as its target T1, DNA topoisomerase 1 (Homo sapiens) (UniProt P11387).
T1 sequence (whole entry): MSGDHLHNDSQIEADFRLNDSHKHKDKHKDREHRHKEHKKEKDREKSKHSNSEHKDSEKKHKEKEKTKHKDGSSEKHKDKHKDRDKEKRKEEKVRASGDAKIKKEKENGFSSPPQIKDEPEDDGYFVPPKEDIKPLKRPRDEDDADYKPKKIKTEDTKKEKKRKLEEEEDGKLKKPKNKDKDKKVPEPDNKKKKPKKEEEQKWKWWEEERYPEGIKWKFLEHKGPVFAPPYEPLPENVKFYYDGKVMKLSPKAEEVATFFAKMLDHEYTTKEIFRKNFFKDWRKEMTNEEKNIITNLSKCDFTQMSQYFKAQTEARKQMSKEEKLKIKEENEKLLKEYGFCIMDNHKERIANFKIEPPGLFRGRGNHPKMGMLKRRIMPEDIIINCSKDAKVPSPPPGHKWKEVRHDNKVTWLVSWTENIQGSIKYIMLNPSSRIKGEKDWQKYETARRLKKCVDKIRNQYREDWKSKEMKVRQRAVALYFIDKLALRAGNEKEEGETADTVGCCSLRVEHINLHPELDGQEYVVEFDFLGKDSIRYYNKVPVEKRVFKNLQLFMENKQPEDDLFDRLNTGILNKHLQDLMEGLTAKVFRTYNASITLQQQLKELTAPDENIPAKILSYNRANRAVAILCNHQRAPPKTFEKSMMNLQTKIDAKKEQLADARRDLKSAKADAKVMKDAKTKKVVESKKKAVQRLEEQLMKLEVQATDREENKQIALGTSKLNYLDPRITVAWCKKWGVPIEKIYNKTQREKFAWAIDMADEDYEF
Kind of series: Inhibition of human topoisomerase 1 assessed as relaxation of pBR322 plasmid DNA at 100 uM measured after 30 mins by agarose gel electrophoresis analysis.

The test system of the next series is MGC-803. Put plainly: Antiproliferative activity against human MGC-803 cells assessed as reduction in cell viability measured for 48 hrs by MTT assay. Format: functional, cell-based. The note with it: MGC-803, 48 h.
In series [2] the target is DNA topoisomerase 2-alpha (Homo sapiens) (UniProt P11388). Kind of series: Inhibition of human topoisomerase 2 assessed as relaxation of pBR322 plasmid DNA at 100 uM measured after 30 mins by ethidium bromide staining based UV transilluminator analysis.
Chain of DNA topoisomerase 2-alpha (Homo sapiens) (P11388 whole entry): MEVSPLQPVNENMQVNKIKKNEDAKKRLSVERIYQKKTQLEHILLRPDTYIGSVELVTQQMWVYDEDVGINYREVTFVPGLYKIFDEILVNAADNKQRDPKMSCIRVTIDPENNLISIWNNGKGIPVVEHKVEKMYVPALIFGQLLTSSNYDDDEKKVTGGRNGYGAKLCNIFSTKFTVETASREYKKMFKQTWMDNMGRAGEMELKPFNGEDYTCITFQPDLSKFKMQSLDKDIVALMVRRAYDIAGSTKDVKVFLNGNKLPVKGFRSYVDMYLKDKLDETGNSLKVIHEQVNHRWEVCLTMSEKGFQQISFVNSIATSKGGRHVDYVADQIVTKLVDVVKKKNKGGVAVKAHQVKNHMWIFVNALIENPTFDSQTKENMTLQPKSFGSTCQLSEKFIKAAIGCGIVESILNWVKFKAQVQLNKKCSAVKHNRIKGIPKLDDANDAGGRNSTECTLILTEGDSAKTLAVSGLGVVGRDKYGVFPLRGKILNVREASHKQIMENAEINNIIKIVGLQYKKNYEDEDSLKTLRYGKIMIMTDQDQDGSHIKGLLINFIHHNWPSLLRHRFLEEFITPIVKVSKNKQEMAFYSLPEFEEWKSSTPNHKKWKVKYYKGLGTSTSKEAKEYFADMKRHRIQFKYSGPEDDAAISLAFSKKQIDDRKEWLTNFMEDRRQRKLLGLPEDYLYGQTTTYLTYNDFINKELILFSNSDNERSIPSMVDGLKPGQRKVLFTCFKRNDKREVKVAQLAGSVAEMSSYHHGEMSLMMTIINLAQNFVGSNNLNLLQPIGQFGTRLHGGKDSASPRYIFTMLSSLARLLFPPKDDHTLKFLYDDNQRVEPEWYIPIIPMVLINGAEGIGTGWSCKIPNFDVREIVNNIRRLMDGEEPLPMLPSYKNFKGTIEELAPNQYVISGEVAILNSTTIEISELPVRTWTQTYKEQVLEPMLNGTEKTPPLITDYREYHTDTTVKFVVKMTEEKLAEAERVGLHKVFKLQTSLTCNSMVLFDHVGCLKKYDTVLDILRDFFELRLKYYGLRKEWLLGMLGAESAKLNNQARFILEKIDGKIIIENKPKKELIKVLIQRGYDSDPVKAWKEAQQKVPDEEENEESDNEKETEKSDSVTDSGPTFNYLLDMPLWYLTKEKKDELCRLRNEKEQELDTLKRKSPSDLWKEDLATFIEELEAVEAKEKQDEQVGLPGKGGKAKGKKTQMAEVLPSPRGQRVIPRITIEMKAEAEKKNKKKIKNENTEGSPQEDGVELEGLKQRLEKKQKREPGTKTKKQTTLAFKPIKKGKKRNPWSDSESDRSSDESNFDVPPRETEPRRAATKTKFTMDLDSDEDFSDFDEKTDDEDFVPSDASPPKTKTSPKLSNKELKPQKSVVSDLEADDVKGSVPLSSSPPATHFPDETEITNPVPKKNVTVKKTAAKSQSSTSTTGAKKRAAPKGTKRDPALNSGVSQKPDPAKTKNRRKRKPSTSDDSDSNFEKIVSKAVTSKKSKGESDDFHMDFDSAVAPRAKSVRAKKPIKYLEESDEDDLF
Another series concerns U-937. Kind of series: Antiproliferative activity against human U-937 cells assessed as reduction in cell viability measured for 48 hrs by MTT assay. The series is classed as functional, cell-based. The settings on record: U-937, 48 h.
For another series, the system named is NIH3T3. Kind of series: Antiproliferative activity against mouse 3T3 cells assessed as reduction in cell viability at 100 uM measured for 48 hrs by MTT assay relative to control. The note with it: nih3t3, 48 h. Format: toxicity, cell-based. (Formazan colour is commonly taken as a measure of viable cells.)
Another series relates to MCF7. Kind of series: Antiproliferative activity against human MCF7 cells assessed as reduction in cell viability measured for 48 hrs by MTT assay. The series is classed as functional, cell-based. The settings on record: MCF7, 48 h.

Calls of active or inactive are those of the source. The calls are words filed in the database; no cut-off is given here. Bounds are passed on as bounds.

Broadly, the IC50 is the concentration at which inhibition is half-maximal. For the compound `O=C(CCCCCSc1nc2[nH]ncc2c(=O)[nH]1)NO`, the “inhibition (active/inactive call)” value in series [1] was “Active”. Moreover, the IC50 in the series on MGC-803 came out at 25.8 µM; in the series on U-937, 21.6 µM; with MCF7, 15.5 µM. Moreover, the “topoisomerase II inhibition (active/inactive)” value in series [2] was “Active”. Also, in the series with NIH3T3, the Activity stood at 20.31%.
On to `CCn1c(SCCCCCC(=O)NO)nc2c([nH]c3ccccc32)c1=O`, for which the “inhibition (active/inactive call)” value in series [1] is “Active”. In addition, the 50% inhibitory concentration (IC50) in the series with MGC-803 stood at 26 µM; in the series with U-937 it was 19.6 µM; with MCF7 it was 25.7 µM. For the same compound, the Activity in the series with NIH3T3 is 43.13%.
For the compound `O=C(CCCCSc1nc2[nH]ncc2c(=O)[nH]1)NO`, in series [1], the “inhibition (active/inactive call)” value is “Active”. In addition, the concentration for half-maximal inhibition (IC50) with MGC-803 came out at 40 µM; in the series with U-937, 19.5 µM; in the series on MCF7, 18.9 µM. The “topoisomerase II inhibition (active/inactive)” value in series [2] is “Active”. The Activity with NIH3T3 amounted to 24.26%.
As for `O=C(CSc1nc2c([nH]c3ccccc32)c(=O)[nH]1)NO`, in series [1], the “inhibition (active/inactive call)” value was “Active”. For the same compound, the half-maximal inhibitory concentration (IC50) with MGC-803 was greater than 80 µM; in the series on U-937 it was 26.7 µM; with MCF7, greater than 80 µM. In addition, the “topoisomerase II inhibition (active/inactive)” value in series [2] was “Active”. Also, the Activity in the series on NIH3T3 came to 38.47%.
`O=C(CCCSc1nc2c([nH]c3ccccc32)c(=O)[nH]1)NO`: the “inhibition (active/inactive call)” value in series [1] was “Active”. For the same compound, the IC50 with MGC-803 was determined as 34.1 µM; with U-937, 54.2 µM; in the series with MCF7, 41.4 µM. In addition, the “topoisomerase II inhibition (active/inactive)” value in series [2] was “Active”. Moreover, in the series with NIH3T3, the Activity turned out to be 38.06%.
For `C/C(=N\O)c1ccc(NC(=O)CSc2nc3c([nH]c4ccccc43)c(=O)[nH]2)cc1`, the “inhibition (active/inactive call)” value in series [1] is “Active”. The IC50 with MGC-803 was 33.3 µM; in the series with U-937, 37.2 µM; in the series on MCF7, greater than 80 µM. Also, the “topoisomerase II inhibition (active/inactive)” value in series [2] is “Active”. Also, the Activity in the series on NIH3T3 stood at 18.72%.
With `O=C(/C=C/c1ccc(CSc2nc3[nH]ncc3c(=O)[nH]2)cc1)NO`, the “inhibition (active/inactive call)” value in series [1] was “Active”. In addition, the concentration for half-maximal inhibition (IC50) in the series on MGC-803 is 15.8 µM; with U-937 it was 47.7 µM; in the series on MCF7 it was 21.5 µM. For the same compound, the “topoisomerase II inhibition (active/inactive)” value in series [2] was “Active”. Moreover, the Activity in the series on NIH3T3 worked out at 39.04%.
In the case of `CCn1c(SCC(=O)Nc2ccc(/C(C)=N/O)cc2)nc2c([nH]c3ccccc32)c1=O`, the “inhibition (active/inactive call)” value in series [1] was “Active”. For the same compound, the IC50 with MGC-803 was determined as 48.4 µM; with U-937, 30.3 µM; with MCF7 it was 37.2 µM. Moreover, the “topoisomerase II inhibition (active/inactive)” value in series [2] is “Active”. For the same compound, the Activity in the series on NIH3T3 was found to be 21.56%.
With `O=C(CSc1nc2[nH]ncc2c(=O)[nH]1)NO`, the “inhibition (active/inactive call)” value in series [1] was “Active”. In addition, the IC50 is 31.2 µM with MGC-803, 23.5 µM with U-937 and greater than 80 µM in the series on MCF7. Besides, the “topoisomerase II inhibition (active/inactive)” value in series [2] was “Active”. Further, the Activity in the series on NIH3T3 was determined as 41.42%.
Regarding `CCn1c(SCCCCCCCC(=O)NO)nc2c([nH]c3ccccc32)c1=O`, the “inhibition (active/inactive call)” value in series [1] was “Active”. For the same compound, the half-maximal inhibitory concentration (IC50) is 36.4 µM with MGC-803, 25.1 µM with U-937 and 19.6 µM in the series with MCF7. Also, the Activity in the series on NIH3T3 amounted to 43.12%.
The matching figures for `C/C(=N\O)c1ccc(NC(=O)CSc2nc3[nH]ncc3c(=O)[nH]2)cc1`: “Active”, 42.5 µM, 31.2 µM, 46.4 µM and 41.36%.
The matching figures for `C/C(=N/O)c1ccc(NC(=O)CCCSc2nc3[nH]ncc3c(=O)[nH]2)cc1`: “Active”, 36.6 µM, 44.7 µM, 36.4 µM and 38.02%.
For `O=C(CCSc1nc2[nH]ncc2c(=O)[nH]1)NO`, the “inhibition (active/inactive call)” value in series [1] is “Active”. The values for the IC50 with MGC-803, in the series on U-937 and in the series with MCF7 were 19.1 µM, 31.8 µM and 22.6 µM, respectively. Further, in series [2], the “topoisomerase II inhibition (active/inactive)” value was “Active”. Also, the Activity in the series on NIH3T3 is given as 48.81%.
As for `O=C(/C=C/CSc1nc2c([nH]c3ccccc32)c(=O)[nH]1)NO`, the “inhibition (active/inactive call)” value in series [1] was “Active”. For the same compound, the 50% inhibitory concentration (IC50) was 20.4 µM in the series on MGC-803, 21.9 µM in the series with U-937 and 49.3 µM in the series with MCF7. In addition, the “topoisomerase II inhibition (active/inactive)” value in series [2] is “Active”. For the same compound, the Activity in the series on NIH3T3 is reported as 41.34%.
With `O=C(CCCCCCSc1nc2c([nH]c3ccccc32)c(=O)[nH]1)NO`, the “inhibition (active/inactive call)” value in series [1] is “Active”. The IC50 with MGC-803 was found to be 19.9 µM; in the series with U-937 it was 19.7 µM; with MCF7 it was 25 µM. In addition, in series [2], the “topoisomerase II inhibition (active/inactive)” value was “Active”. Besides, the Activity in the series with NIH3T3 was 53.49%.
As to `CCn1c(SCC(=O)NO)nc2c([nH]c3ccccc32)c1=O`, in series [1], the “inhibition (active/inactive call)” value was “Active”. Besides, the half-inhibitory concentration (IC50) came to 31.3 µM in the series with MGC-803, 15 µM in the series on U-937 and 41.2 µM with MCF7. In addition, the Activity with NIH3T3 is recorded as 45.5%.
Consider `O=C(CCCSc1nc2[nH]ncc2c(=O)[nH]1)NO`, for which the “inhibition (active/inactive call)” value in series [1] was “Active”. Also, the IC50 in the series on MGC-803 was found to be 27.5 µM; with U-937, 21.7 µM; in the series with MCF7 it was 20.4 µM. In the series with NIH3T3, the Activity is 32.15%.
Consider `CCn1c(SCCC(=O)NO)nc2c([nH]c3ccccc32)c1=O`, for which the “inhibition (active/inactive call)” value in series [1] is “Active”. Further, the IC50 in the series on MGC-803 came to 43.5 µM; in the series with U-937, 18.2 µM; with MCF7 it was 42.7 µM. Besides, the Activity with NIH3T3 is 53.79%.
On the same counts, the results for `CCn1c(SCCCCCCC(=O)NO)nc2c([nH]c3ccccc32)c1=O` are “Active”, 46.4 µM, 21.8 µM, 34.6 µM and 61.71%.
Take `CC[C@@]1(O)C(=O)OCc2c1cc1n(c2=O)Cc2cc3ccccc3nc2-1` [CAMPTOTHECIN]: the half-maximal inhibitory concentration (IC50) in the series with MGC-803 was found to be 17.8 µM; in the series with U-937 it was 18.2 µM; in the series with MCF7 it was 18.6 µM. Further, the Activity in the series on NIH3T3 worked out at 37.51%.
In the case of `CCn1c(SCCCC(=O)NO)nc2c([nH]c3ccccc32)c1=O`, the “inhibition (active/inactive call)” value in series [1] was “Active”. Besides, the 50% inhibitory concentration (IC50) was 17.4 µM in the series on MGC-803, 18.1 µM with U-937 and greater than 80 µM in the series on MCF7. Besides, the Activity in the series on NIH3T3 was 46.33%.
`CCn1c(SC/C=C/C(=O)NO)nc2c([nH]c3ccccc32)c1=O`: in series [1], the “inhibition (active/inactive call)” value is “Active”. For the same compound, the 50% inhibitory concentration (IC50) with MGC-803 worked out at 25.5 µM; in the series on U-937 it was 23.3 µM; with MCF7, 35.5 µM. Besides, in the series with NIH3T3, the Activity came out at 50.31%.
Regarding `O=C(CCSc1nc2c([nH]c3ccccc32)c(=O)[nH]1)NO`, the “inhibition (active/inactive call)” value in series [1] was “Active”. Moreover, the half-maximal inhibitory concentration (IC50) came to 24.8 µM in the series on MGC-803, 28 µM with U-937 and 59.6 µM with MCF7. Also, the “topoisomerase II inhibition (active/inactive)” value in series [2] was “Active”. In addition, the Activity with NIH3T3 is reported as 21.73%.
